“Also recorded” adds a separate entry of the source. Like-named read-outs stand apart in the source and are kept apart here. Positions of bridges follow the written chain, without caps; N, C: chain ends. Non-standard residues stand in square brackets, D forms with d. Residues, ends and D or L forms follow the SMILES beside them. Chains are numbered I, II in the order given. No end group written: not given here. Ac6c = NC1(C(=O)O)CCCCC1; Dab = NCC[C@H](N)C(=O)O; Nva = CCC[C@H](N)C(=O)O
Tests used:
[1] = tested on: K562 chronic myeloid leukemia (CML) cells; assay: K562 CML cell proliferation, 3-day growth inhibition by cell count; format: cell-based, human
Protocol: (§1) MCF-7 BC and K562 chronic myeloid leukemia (CML) cells were grown in standard RPMI 1640 medium. Seventy-five thousand MCF-7 and 100,000 K-562 cells grown in RPMI 1640 medium containing 10% fetal bovine serum (FBS, for MCF-7) or 0.5% bovine serum albumin (BSA, for K562) were seeded into wells of 24-well culture plates. After 24 h, MCF-7 cells were shifted to K562 medium (serum free). After an additional 24 h, the cultures were treated with various concentrations of peptides or a mixture of peptides for 72 h and counted. The assays were done in triplicates and repeated twice from different cell preparations. The cell numbers were expressed as means ± standard error (SE). Statistical analysis was done with a SlideWrite graphical software package (Encinitas, USA).

Serum stability = format: in vitro ADME; details: undiluted pooled mouse serum, RP-HPLC at 214 nm, triplicate; for half-life at 0.075 mg/mL: 10 μL of 3 mg/mL peptide in 390 μL serum, 37°C, 0, 30, 120, 240 min, TCA precipitation
Protocol: (§2) For serum stability studies (Powell et al., [1993]) 10 μL of an aqueous peptide stock solution (3 mg/mL) was added to 390 μL pooled mouse serum in triplicate. The peptide-serum mixtures were thermostated at 37°C. After 0, 30, 120, and 240 min, 95 μL aliquots were mixed with 25 μL trichloroacetic acid (15%, w/v) and incubated for 10 min on ice. The precipitated proteins were separated by centrifugation (5 min, 12,000 × g, Eppendorf MiniSpin). The supernatant (90 μL) was neutralized with 8.5 μL aqueous sodium hydroxide solution (1 M) and mixed with 3% aqueous acetonitrile containing 0.1% TFA (121.5 μL). After centrifugation (5 min, 12,000 × g, Eppendorf MiniSpin) a 100 μL solution was analyzed by RP-HPLC using a Jupiter C18 column (2.0 mm inner diameter, 150 mm length, 5 μm particle size, 30 nm pore size; Phenomenex, Torrance) on a Beckman Gold HPLC System at 60°C. The gradient from 0.1% TFA in water (eluent A) to 60% acetonitrile in 0.1% aqueous TFA (eluent B) was developed using 1% B/min and the amide bond was monitored at 214 nm.

normal mice = details: up to a 10 mg/kg bolus intraperitoneal (ip) dose; ref Otvos et al., 2011a; cited from earlier work
From the text: In 2011 we reported on the identification of the adiponectin active site and the design and functional characterization of adiponectin-based peptide compounds for the activation of AdipoR using glioma and breast cancer (BC) model systems (Otvos et al., [2011a]). The lead peptide, the 10-mer ADP355, primarily acts through AdipoR1 and induces typical adiponectin signaling pathways in cancer cells (Otvos et al., [2011a]).

[2] = estimated from degradation kinetics in diluted mouse serum; ref Otvos et al., 2011a; cited from earlier work
From the text: Peptide ADP355 (355) is remarkably stable in mouse serum (Otvos et al., [2011a]). […] This stability level is quite high among peptide therapeutics, and is li ...

MCF-7 BC cells [3] = assay: MCF-7 BC cell proliferation, 3-day growth inhibition/promotion by cell count; format: cell-based
Protocol: as §1

MCF-7 BC cells [4] = details: ADP400 100 nM with ADP355 100 nM; p = 0.003
[5] = Aggregation / precipitation observed during assays; format: physicochemical; details: during serum stability assay procedure (mouse serum, TCA precipitation) or under the authors' experimental conditions
Protocol: as §2

pooled mouse serum = details: 37°C, up to 240 min
MCF-7 cells = assay: Agonistic activity screening of targeted peptide library in MCF-7 cells; format: cell-based; details: biological activity screening in MCF-7 cells, targeted agonist library
From the text: Based on the success of our first-in-class AdipoR agonist ADP355 and recognizing the need for a similar AdipoR antagonist, we modified the composition of ADP355 to attenuate AdipoR functions and signaling. The starting point of the design was the activity of the 396-member peptide library we made earlier and from which the ADP355 agonist was selected, and a new central hexamer named peptide 3–8 (Table 2). […] While Pro1 in the C-terminal octamer (Pro3 in ADP355) is replaceable, Gly2, Tyr4, Phe6, Ala7, and DSer8 should be kept for binding. Because Nva3 recovers activation, Leu, the original amino acid in native adiponectin, should be used in this position. […] In the new antagonist Pro1 was replaced with 1-amino-cyclohexane carboxylic acid (Chex1), extremely useful as an N-terminal cyclic aliphatic amino acid mimic in designer antibacterial peptides (Cudic et al., [2002]). These considerations led to derivative 400 (ADP400), H-Chex-Gly-Leu-Tyr-DSer-Phe-Ala-DSer-NH2 (we called it Chex-DSer-8), as a potential AdipoR antagonist (Tables 1, 2).

[6] = tested on: K562 chronic myeloid leukemia (CML) cells; details: compared to unrelated human serum albumin; ref Yokota et al., 2000; cited from earlier work
From the text: The cellular models used here were selected among those known to express AdipoR, involve adiponectin in biological responses and yield reproducible results in our hands. Adiponectin protein has been linked to leukemia, lymphoma, and myeloma in individuals with above-average BMI (Obeid and Hebbard, [2012]). Human-origin K562 CML cells express both AdipoR forms although at relatively low levels (Ozturk et al., [2012]).

**Q.** Which IC50 ([1]; K562, 72 h treatment, 10 nM–10 μM peptide, first assay, IC50 halfway between uninhibited growth and maximal growth inhibition, read-out: relative IC50, inhibition of K562 proliferation) does the source give for `CCC[C@H](NC(=O)[C@@H]1CCCN1C(=O)[C@@H](NC(=O)[C@H](N)CC(N)=O)[C@@H](C)CC)C(=O)N[C@@H](CC(C)C)C(=O)N[C@@H](Cc1ccc(O)cc1)C(=O)N[C@H](CO)C(=O)N[C@@H](Cc1ccccc1)C(=O)N[C@@H](C)C(=O)N[C@H](CO)C(N)=O` [ADP355] (H-[dN]IP[Nva]LY[dS]FA[dS]-NH2) here?
**A.** The IC50 was 200 nM.

**Q.** What about the half-life at 0.075 mg/mL (Serum stability) of the same molecule?
**A.** Its half-life at 0.075 mg/mL is 3 h.

**Q.** And the “toxic properties to normal mice” value (normal mice)?
**A.** The value was “no toxic properties”.

**Q.** What about the “half-life in whole plasma (estimated)” value [2] of the same molecule?
**A.** The value was 1.25 h.

**Q.** What does the source list for `CCC[C@H](NC(=O)[C@@H]1CCCN1C(=O)[C@@H](NC(=O)[C@H](N)CC(N)=O)[C@@H](C)CC)C(=O)N[C@@H](CC(C)C)C(=O)N[C@@H](Cc1ccc(O)cc1)C(=O)N[C@H](CO)C(=O)N[C@@H](Cc1ccccc1)C(=O)N[C@@H](C)C(=O)N[C@H](CO)C(=O)N[C@@H](Cc1c[nH]cn1)C(=O)N1CCC[C@H]1C(=O)NCC[C@H](NC(=O)[C@@H]1CCCN1C(=O)[C@H](Cc1c[nH]cn1)NC(=O)[C@@H](CO)NC(=O)[C@H](C)NC(=O)[C@H](Cc1ccccc1)NC(=O)[C@@H](CO)NC(=O)[C@H](Cc1ccc(O)cc1)NC(=O)[C@H](CC(C)C)NC(=O)[C@H](CCC)NC(=O)[C@@H]1CCCN1C(=O)[C@@H](NC(=O)[C@H](N)CC(N)=O)[C@@H](C)CC)C(N)=O` [ADP399] (I: H-[dN]IP[Nva]LY[dS]FA[dS]HP[Dab]-NH2 / II: H-[dN]IP[Nva]LY[dS]FA[dS]HP; amide I:13-II:C)?
**A.** half-life at 0.075 mg/mL (Serum stability): 0.917 h; remaining at 2 h, 0.075 mg/mL (Serum stability; 37°C, 2 h, read-out: intact peptide still present after 2 h incubation): 16%

**Q.** Which “effect on MCF-7 cell growth without ADP355 present” value (MCF-7 BC cells [3]; 100 nM, alone, compared with co-treatment, which reached the growth level of 10 nM leptin) does the source give for `CC(C)C[C@H](NC(=O)CNC(=O)C1(N)CCCCC1)C(=O)N[C@@H](Cc1ccc(O)cc1)C(=O)N[C@H](CO)C(=O)N[C@@H](Cc1ccccc1)C(=O)N[C@@H](C)C(=O)N[C@H](CO)C(N)=O` [ADP400] (H-[Ac6c]GLY[dS]FA[dS]-NH2) here?
**A.** The value was “promoted cell growth to an identical degree”.

**Q.** What about the “effect on ADP355-induced MCF-7 growth inhibition” value (MCF-7 BC cells [4]) of the same molecule?
**A.** The value was “completely ameliorated”.

**Q.** Which results are given for `CCC[C@@H]1NC(=O)[C@@H]2CCCN2C(=O)[C@H]([C@@H](C)CC)NC(=O)[C@@H](CC(N)=O)NC(=O)[C@H](CC(=O)O)NC(=O)[C@H](Cc2c[nH]cn2)NC(=O)[C@@H](CO)NC(=O)[C@H](C)NC(=O)[C@H](Cc2ccccc2)NC(=O)[C@@H](CO)NC(=O)[C@H](Cc2ccc(O)cc2)NC(=O)[C@H](CC(C)C)NC(=O)[C@H](CCC)NC(=O)[C@@H]2CCCN2C(=O)[C@H]([C@@H](C)CC)NC(=O)[C@@H](CC(N)=O)NC(=O)[C@@H]2CCCN2C(=O)[C@H](Cc2c[nH]cn2)NC(=O)[C@@H](CO)NC(=O)[C@H](C)NC(=O)[C@H](Cc2ccccc2)NC(=O)[C@@H](CO)NC(=O)[C@H](Cc2ccc(O)cc2)NC(=O)[C@H](CC(C)C)NC1=O` [compound 398]?
**A.** IC50 ([1]; 72 h): 300 nM; concentration of maximal effect on K562 proliferation ([1]; K562, 3-day assay): 1 µM; aggregation / precipitation [5]: did aggregate during the serum stability assay; aggregation / precipitation ([5]; listed as cyclic dimer): precipitated during the assay procedure

**Q.** Which cleaved bond (pooled mouse serum) does the source give for “(H-DAsn-Ile-Pro-Nva-Leu-Tyr-DSer-Phe-Ala-DSer-His-Pro)2-Dab-NH2 (branched)” here?
**A.** The cleaved bond was “Leu-Tyr; also recorded: Tyr-DSer”.

**Q.** With “HCNIPGLYYF [compound 24, member of targeted agonist library]” as the molecule, how does the Agonistic activity (MCF-7 cells) read?
**A.** Its Agonistic activity is “Normal”.

**Q.** With “HCN[Nva]PGLYYF [compound 156, member of targeted agonist library]” as the molecule, how does the Agonistic activity (MCF-7 cells) read?
**A.** Its Agonistic activity is “None”.

**Q.** With “HCN[Nva]PG[Nva]YYF [compound 288, member of targeted agonist library]” as the molecule, how does the Agonistic activity (MCF-7 cells) read?
**A.** Its Agonistic activity is “Reduced”.

**Q.** With NIPGLYYFAY [compound 25] as the molecule, how does the Agonistic activity (MCF-7 cells) read?
**A.** The Agonistic activity was “Normal”.

**Q.** With “NIPGLY[dS]FAY [compound 223, member of targeted agonist library]” as the molecule, how does the Agonistic activity (MCF-7 cells) read?
**A.** Its Agonistic activity is “Weakest among P25 analogs”.

**Q.** With “NIP[Nva]LYYFAY [compound 157, member of targeted agonist library]” as the molecule, how does the Agonistic activity (MCF-7 cells) read?
**A.** The Agonistic activity was “Increased”.

**Q.** For PGLYYF [3–8, new central hexamer], which Agonistic activity (MCF-7 cells) is on record?
**A.** Its Agonistic activity is “None”.

**Q.** For “PGLYYFAYHI [compound 26, member of targeted agonist library]”, which Agonistic activity (MCF-7 cells) is on record?
**A.** Its Agonistic activity is “Normal”.

**Q.** Which Agonistic activity (MCF-7 cells) does the source give for “PGL[dS]YF[Nva]YHI [compound 290, member of targeted agonist library]” here?
**A.** The Agonistic activity was “None”.

**Q.** For “[dN]IPGLYGFA[dS] [compound 91, member of targeted agonist library]”, which Agonistic activity (MCF-7 cells) is on record?
**A.** The Agonistic activity was “Normal”.

**Q.** With “leptin: Leptin protein, positive control for exogenous mitogen actions [reference compound]” as the molecule, how does the “promotion of MCF-7 cell growth” value (MCF-7 BC cells [3]; 10 nM, positive control for exogenous mitogen) read?
**A.** Its value is 10%.

B1: adiponectin protein: full-sized adiponectin protein, 244 amino acid cytokine (protein, UniProt Q15848 1-244, looked up)
chain: MLLLGAVLLLLALPGHDQETTTQGPGVLLPLPKGACTGWMAGIPGHPGHNGAPGRDGRDGTPGEKGEKGDPGLIGPKGDIGETGVPGAEGPRGFPGIQGRKGEPGEGAYVYRSAFSVGLETYVTIPNMPIRFTKIFYNQQNHYDGSTGKFHCNIPGLYYFAYHITVYMKDVKVSLFKKDKAMLFTYDQYQENNVDQASGSVLLHLEVGDQVWLQVYGEGERNGLYADNDNDSTFTGFLLYHDTN
modifications: full-length
notes: full-sized adiponectin protein, 244 amino acid cytokine
**Q.** Which “inhibition of relative proliferation rate of K562 cells” value [6] does the source give for B1 here?
**A.** Its value is 9%.

— paper PMC4201147 (Frontiers in Chemistry, 2014)
